According to article PMC11062899, “De novo development of small cyclic peptides that are orally bioavailable” (Nature Chemical Biology, 2023):
Values joined by “and” are separate entries in the source; they are usually repeats but may differ in a detail not shown here. Equal values may be shown once. Read-outs that look alike come from different tables or passages of the source.

How the values were obtained:
human α-thrombin = human α-thrombin (Homo sapiens, UniProt P00734); experiment: Protease inhibition, Ki for human α-thrombin (fluorogenic substrate Z-Gly-Gly-Arg-AMC); assay type: biochemical; conditions: for Human alpha thrombin inhibition, slope normalized to DMSO: replicates R1-R3
Method: (§1) The inhibition constants (Ki) of cyclic peptides were calculated by measuring thrombin inhibition in the presence of different concentrations of the cyclic peptides. […] Human α-thrombin (Molecular Innovations) and rat α-thrombin (Molecular Innovations) were used at final concentrations of 2 nM and 3 nM, respectively, and fluorogenic substrate (Z-Gly-Gly-Arg-AMC, Bachem) was used at a concentration of 50 μM. Enzymatic activity was determined by measuring fluorescent gain on a Tecan Infinite M200 Pro microplate reader (excitation: 360 nm, emission: 465 nm) or a PHERAstar FSX microplate reader (excitation: 380 nm, emission: 440 nm) for 30 min at 25 °C with a fluorescent readout every 3 min. The two instruments were controlled with Tecan Infinite M200 Pro instrument software (iControl, version 1.12) and PHERAstar FSX software (version 5.70, edition 8), respectively. Protease inhibition was calculated by comparing the enzymatic activity to a control without cyclic peptide.
(§2) Half maximal inhibitory concentration (IC50) values were determined using a four-parameter logistic regression model in GraphPad Prism 9 to fit sigmoidal curves to the acquired data points according to equation (2) below.2 y=b+a−b/1+10^(logIC50−x)p where a and b represent the measured inhibition maximum and minimum, respectively; x is the logarithm of peptide concentration; y is the thrombin activity compared to a control without the cyclic peptide; and p is the Hill coefficient.
(§3) Ki values were calculated using the IC50 and the Cheng–Prusoff equation (equation (3)).3 Ki=IC50/1+S0/Km where Km is the Michaelis–Menten constant of the enzyme for the substrate used in the assay, and [S]0 is the initial substrate concentration.

rat α-thrombin = target: T1, rat α-thrombin (Rattus norvegicus, UniProt P18292); experiment: Protease inhibition, Ki for rat α-thrombin (fluorogenic substrate Z-Gly-Gly-Arg-AMC); assay type: biochemical; conditions: for Rat alpha thrombin inhibition, slope normalized to DMSO: replicates R1-R3
T1 construct: rat α-thrombin (Molecular Innovations) were used at final concentrations of 2 nM and 3 nM; purchased Molecular Innovations
Method: as §1, §2, §3

[1] = Passive artificial membrane permeability (PAMPA);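 on Permeability% Average: top well sample relative to theoretical equilibrium sample by TIC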
[2] = peptide concentration 1.00E+02 uM
[3] = peptide concentration 1.19E-05 uM
[4] = peptide concentration 1.22E-02 uM
[5] = peptide concentration 1.25E+01 uM
[6] = peptide concentration 1.53E-03 uM
[7] = peptide concentration 1.56E+00 uM
[8] = peptide concentration 1.91E-04 uM
[9] = peptide concentration 1.95E-01 uM
[10] = peptide concentration 2.38E-05 uM
[11] = peptide concentration 2.44E-02 uM
[12] = peptide concentration 2.50E+01 uM
[13] = peptide concentration 3.05E-03 uM
[14] = peptide concentration 3.12E+00 uM
[15] = peptide concentration 3.81E-04 uM
[16] = peptide concentration 3.91E-01 uM
[17] = peptide concentration 4.77E-05 uM
[18] = peptide concentration 4.88E-02 uM
[19] = peptide concentration 5.00E+01 uM
[20] = peptide concentration 6.10E-03 uM
[21] = peptide concentration 6.25E+00 uM
[22] = peptide concentration 7.63E-04 uM
[23] = peptide concentration 7.81E-01 uM
[24] = peptide concentration 9.54E-05 uM
[25] = peptide concentration 9.77E-02 uM

SMILES: O=C1C[C@H]2CCCN2C(=O)[C@H](Cc2ccccc2)NC(=O)[C@@H](NC(=O)c2ccc(Cl)s2)CCC=CCCCN1 [compound 41]
- Ki (human α-thrombin; average of R1-R3, read-out: Human alpha thrombin inhibition, Ki Average): 1570 nM
- Human alpha thrombin inhibition, slope normalized to DMSO (human α-thrombin; [2]): 9.8 and 10.5 and 10.6
- Human alpha thrombin inhibition, slope normalized to DMSO (human α-thrombin; [3]): 108.3 and 123.2 and 86.4
- Human alpha thrombin inhibition, slope normalized to DMSO (human α-thrombin; [4]): 81.6 and 60.4 and 71.9
- Human alpha thrombin inhibition, slope normalized to DMSO (human α-thrombin; [5]): 16.2 and 18.0 and 13.2
- Human alpha thrombin inhibition, slope normalized to DMSO (human α-thrombin; [6]): 102.7 and 105.3 and 96.0
- Human alpha thrombin inhibition, slope normalized to DMSO (human α-thrombin; [7]): 60.1 and 45.1 and 57.4
- Human alpha thrombin inhibition, slope normalized to DMSO (human α-thrombin; [8]): 110.2 and 100.0 and 95.6
- Human alpha thrombin inhibition, slope normalized to DMSO (human α-thrombin; [9]): 90.5 and 54.5 and 66.4
- Human alpha thrombin inhibition, slope normalized to DMSO (human α-thrombin; [10]): 111.1 and 102.0 and 98.3
- Human alpha thrombin inhibition, slope normalized to DMSO (human α-thrombin; [11]): 60.0 and 83.9 and 99.7
- Human alpha thrombin inhibition, slope normalized to DMSO (human α-thrombin; [12]): 16.8 and 4.9 and 12.0
- Human alpha thrombin inhibition, slope normalized to DMSO (human α-thrombin; [13]): 65.1 and 103.9 and 92.0
- Human alpha thrombin inhibition, slope normalized to DMSO (human α-thrombin; [14]): 47.1 and 40.3 and 37.6
- Human alpha thrombin inhibition, slope normalized to DMSO (human α-thrombin; [15]): 113.9 and 97.1 and 98.1
- Human alpha thrombin inhibition, slope normalized to DMSO (human α-thrombin; [16]): 59.1 and 81.1 and 60.5
- Human alpha thrombin inhibition, slope normalized to DMSO (human α-thrombin; [17]): 106.6 and 104.5 and 98.0
- Human alpha thrombin inhibition, slope normalized to DMSO (human α-thrombin; [18]): 96.4 and 58.3 and 94.8
- Human alpha thrombin inhibition, slope normalized to DMSO (human α-thrombin; [19]): 14.2 and 14.0 and 12.9
- Human alpha thrombin inhibition, slope normalized to DMSO (human α-thrombin; [20]): 78.1 and 71.3 and 72.1
- Human alpha thrombin inhibition, slope normalized to DMSO (human α-thrombin; [21]): 15.4 and 28.4 and 22.2
- Human alpha thrombin inhibition, slope normalized to DMSO (human α-thrombin; [22]): 61.4 and 105.9 and 50.7
- Human alpha thrombin inhibition, slope normalized to DMSO (human α-thrombin; [23]): 75.8 and 62.9 and 64.9
- Human alpha thrombin inhibition, slope normalized to DMSO (human α-thrombin; [24]): 104.3 and 61.9 and 103.5
- Human alpha thrombin inhibition, slope normalized to DMSO (human α-thrombin; [25]): 84.6 and 105.9 and 85.2
- IC50 (human α-thrombin; single replicates R1-R3, read-out: Human alpha thrombin inhibition, IC50): 2700 nM and 1730 nM and 1690 nM
- Ki (human α-thrombin; single replicates R1-R3, read-out: Human alpha thrombin inhibition, Ki): 2.08 µM (2×) and 1.34 µM (2×) and 1.3 µM (2×)
- Ki (rat α-thrombin; average of R1-R3, read-out: Rat alpha thrombin inhibition, Ki Average): 180 nM
- Rat alpha thrombin inhibition, slope normalized to DMSO (rat α-thrombin; [2]): 5.3 and 5.7 and 4.1
- Rat alpha thrombin inhibition, slope normalized to DMSO (rat α-thrombin; [3]): 101.7 and 102.1 and 101.8
- Rat alpha thrombin inhibition, slope normalized to DMSO (rat α-thrombin; [4]): 87.5 and 92.0 and 84.9
- Rat alpha thrombin inhibition, slope normalized to DMSO (rat α-thrombin; [5]): 9.2 and 8.7 and 7.8
- Rat alpha thrombin inhibition, slope normalized to DMSO (rat α-thrombin; [6]): 94.8 and 97.7 and 92.4
- Rat alpha thrombin inhibition, slope normalized to DMSO (rat α-thrombin; [7]): 25.0 and 25.1 and 31.0
- Rat alpha thrombin inhibition, slope normalized to DMSO (rat α-thrombin; [8]): 106.1 and 99.6 and 88.4
- Rat alpha thrombin inhibition, slope normalized to DMSO (rat α-thrombin; [9]): 69.0 and 50.2 and 49.8
- Rat alpha thrombin inhibition, slope normalized to DMSO (rat α-thrombin; [10]): 103.2 and 98.1 and 102.8
- Rat alpha thrombin inhibition, slope normalized to DMSO (rat α-thrombin; [11]): 92.3 and 89.1 and 86.1
- Rat alpha thrombin inhibition, slope normalized to DMSO (rat α-thrombin; [12]): 4.2 and 6.8 and 8.8
- Rat alpha thrombin inhibition, slope normalized to DMSO (rat α-thrombin; [13]): 99.2 and 99.8 and 88.1
- Rat alpha thrombin inhibition, slope normalized to DMSO (rat α-thrombin; [14]): 8.2 and 23.7 and 18.2
- Rat alpha thrombin inhibition, slope normalized to DMSO (rat α-thrombin; [15]): 107.3 and 92.0 and 81.7
- Rat alpha thrombin inhibition, slope normalized to DMSO (rat α-thrombin; [16]): 38.0 and 46.4 and 45.2
- Rat alpha thrombin inhibition, slope normalized to DMSO (rat α-thrombin; [17]): 102.3 and 101.4 and 86.4
- Rat alpha thrombin inhibition, slope normalized to DMSO (rat α-thrombin; [18]): 83.5 and 87.2 and 79.0
- Rat alpha thrombin inhibition, slope normalized to DMSO (rat α-thrombin; [19]): 3.7 and 8.5 and 7.9
- Rat alpha thrombin inhibition, slope normalized to DMSO (rat α-thrombin; [20]): 92.6 and 94.8 and 84.9
- Rat alpha thrombin inhibition, slope normalized to DMSO (rat α-thrombin; [21]): 13.6 and 12.8 and 13.7
- Rat alpha thrombin inhibition, slope normalized to DMSO (rat α-thrombin; [22]): 102.3 and 100.6 and 67.7
- Rat alpha thrombin inhibition, slope normalized to DMSO (rat α-thrombin; [23]): 42.8 and 23.4 and 43.3
- Rat alpha thrombin inhibition, slope normalized to DMSO (rat α-thrombin; [24]): 92.9 and 92.2 and 96.6
- Rat alpha thrombin inhibition, slope normalized to DMSO (rat α-thrombin; [25]): 73.2 and 69.4 and 67.8
- IC50 (rat α-thrombin; single replicates R1-R3, read-out: Rat alpha thrombin inhibition, IC50): 326 nM and 228 nM and 420 nM
- Ki (rat α-thrombin; single replicates R1-R3, read-out: Rat alpha thrombin inhibition, Ki): 180 nM (2×) and 126 nM (2×) and 232 nM (2×)
- PAMPA permeability: % permeability ([1]; 50 μM, 12–18 h, acceptor concentration relative to equilibrium): 64 ± 11%
- Permeability% (single replicates R1–R3) ([1]; 50 μM, 13 h (Fig. 5d)): 76.34% and 63.06% and 53.71%
- Permeability% Average ([1]; 50 μM, 13 h (Fig. 5d)): 64.4%
- Papp at 50 μM ([1]; PAMPA, pH 7.4): 9.33 ×10⁻⁶ cm/s
